Laboratory results as given in US9023789B2, “Amylin analogs and pharmaceutical compositions thereof” (Novo Nordisk A/S, priority 2012, dated 2015).
pIC50: −log10 of the molar value. Read-outs that look alike come from different tables or passages of the source.

Key:
[1] = target: T1, human amylin receptor (membranes from Amylin 3(a)/CRE-luc cells) (Homo sapiens, UniProt O60896+P30988); test: ASSAY (V) binding to the human amylin receptor (SPA, 125I-rat amylin);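 further: competition binding of cell membranes (35 ng/µL) mixed with SPA beads in 384-well plates at 40 µL total volume, read by scintillation counting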
T1 construct: expressed in transfected cells
T1 sequence (P30988 25-474): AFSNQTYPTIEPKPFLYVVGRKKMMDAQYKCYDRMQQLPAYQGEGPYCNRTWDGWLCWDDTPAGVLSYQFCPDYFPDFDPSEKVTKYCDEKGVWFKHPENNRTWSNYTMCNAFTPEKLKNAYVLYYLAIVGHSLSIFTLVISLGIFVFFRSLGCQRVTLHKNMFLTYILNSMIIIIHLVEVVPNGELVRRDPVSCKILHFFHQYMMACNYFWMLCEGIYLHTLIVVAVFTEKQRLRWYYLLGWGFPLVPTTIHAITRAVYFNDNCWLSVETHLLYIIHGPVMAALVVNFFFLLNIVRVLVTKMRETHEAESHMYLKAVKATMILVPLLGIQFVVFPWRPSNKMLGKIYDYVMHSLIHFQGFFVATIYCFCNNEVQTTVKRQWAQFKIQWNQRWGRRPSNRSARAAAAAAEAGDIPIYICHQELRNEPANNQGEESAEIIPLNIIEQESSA
T1 sequence (O60896 24-148 partner): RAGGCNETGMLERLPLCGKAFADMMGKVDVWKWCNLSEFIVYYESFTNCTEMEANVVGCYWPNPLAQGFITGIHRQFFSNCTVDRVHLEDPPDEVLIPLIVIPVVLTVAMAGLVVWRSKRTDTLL

rat calcitonin receptor = target: T2, rat calcitonin receptor (Rattus norvegicus, UniProt P32214); test: ASSAY (VIII) binding to the rat calcitonin receptor; details: Table 7, read-out: rCTR bind IC50
T2 construct: expressed in transfected cells; host or cells: BHK tk'ts 13 (transient, FuGENE 6), membranes
T2 sequence (P32214 25-479 isoform P32214-2 limits assumed): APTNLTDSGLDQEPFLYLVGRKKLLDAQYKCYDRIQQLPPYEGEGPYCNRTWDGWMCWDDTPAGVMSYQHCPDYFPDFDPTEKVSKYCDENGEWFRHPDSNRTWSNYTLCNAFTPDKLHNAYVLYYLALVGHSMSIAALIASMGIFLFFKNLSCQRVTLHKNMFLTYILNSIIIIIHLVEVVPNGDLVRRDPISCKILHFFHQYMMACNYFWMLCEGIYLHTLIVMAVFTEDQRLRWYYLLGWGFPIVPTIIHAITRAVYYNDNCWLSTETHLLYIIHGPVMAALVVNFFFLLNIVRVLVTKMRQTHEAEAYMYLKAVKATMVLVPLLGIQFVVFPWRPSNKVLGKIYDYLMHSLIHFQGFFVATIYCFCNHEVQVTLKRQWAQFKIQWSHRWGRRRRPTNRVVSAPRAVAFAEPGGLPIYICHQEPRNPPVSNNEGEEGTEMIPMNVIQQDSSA
How it was run: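 Cell membranes for binding came from BHK tk′ts 13 cells harvested approximately 48 hours after transient transfection with the rat receptor.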

[2] = target: T3, rat amylin receptor (rat calcitonin receptor + rat RAMP 3) (Rattus norvegicus, UniProt P32214+Q9JJ73); test: ASSAY (VI) binding to the rat amylin receptor; details: for pIC50: binding to rat amylin receptor, read-out: rAmylin-R bind IC50
T3 construct: expressed in transfected cells; host or cells: BHK tk'ts 13 (transient, FuGENE 6), membranes
T3 sequence (P32214 25-479 isoform P32214-2 limits assumed): T2 sequence (P32214 25-479 isoform P32214-2 limits assumed)
T3 sequence (Q9JJ73 23-147 partner): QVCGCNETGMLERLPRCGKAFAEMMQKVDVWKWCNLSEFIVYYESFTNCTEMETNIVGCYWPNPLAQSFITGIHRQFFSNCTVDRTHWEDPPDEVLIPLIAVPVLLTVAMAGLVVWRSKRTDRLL
How it was run: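 The cell-membrane assay assessed binding at the rat amylin receptor. BHK tk′ts 13 cells were transfected transiently with rat calcitonin receptor, with FuGENE® 6 (Roche) as the transfection reagent, used per the manufacturer's recommendations. Approximately 48 hours after transfection the cells were harvested, and membranes were prepared for measuring binding.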

[3] = ASSAY (IV) determination of solubility; type: physicochemical
How it was run: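 Samples of polypeptide, prepared from a water stock at […] and diluted 1:1 into 100 mM buffers spanning pH 3.0 to 8.0, stood 18 hours at room temperature. Polypeptide concentration was then determined by UPLC following centrifugation.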

[4] = Table 5, selectivity, hCTR bind IC50 / hAmylin-R bind IC50
[5] = Table 5a, selectivity, hCTR bind IC50 / hAmylin-R bind IC50
[6] = Table 5b, selectivity, hCTR bind IC50 / hAmylin-R bind IC50
[7] = Table 5c, selectivity, hCTR bind IC50 / hAmylin-R bind IC50
[8] = Table 7, human binding selectivity, included for comparison
[9] = Table 7a (preferred compounds), human binding selectivity, included for comparison
[10] = ratio of human calcitonin receptor binding IC50 to human amylin receptor binding IC50
[11] = Table 7, rat binding selectivity, rCTR IC50 / rAmylin-R IC50
[12] = Table 7a (preferred compounds), rat binding selectivity, rCTR IC50 / rAmylin-R IC50
[13] = ratio of rCTR bind IC50 to rAmylin-R bind IC50
[14] = bistrispropane buffer, pH 6.5, read-out: Solubility pH 6.5 Concentration
[15] = bistrispropane buffer, pH 7.5, read-out: Solubility pH 7.5 Concentration
[16] = bistrispropane buffer, pH 6.0, read-out: Solubility pH 6.0 Concentration
[17] = bistrispropane buffer, pH 7.0, read-out: Solubility pH 7.0 Concentration
[18] = bistrispropane buffer, pH 8.0, read-out: Solubility pH 8.0 Concentration
[19] = glycylglycine buffer, pH 3.0, read-out: Solubility pH 3.0 Concentration
[20] = glycylglycine buffer, pH 4.0, read-out: Solubility pH 4.0 Concentration
[21] = glycylglycine buffer, pH 5.0, read-out: Solubility pH 5.0 Concentration

| SMILES | Ratio hCT/hAmylin binding [1, 4] | Ratio hCT/hAmylin binding [1, 5] | Ratio hCT/hAmylin binding [1, 6] | Ratio hCT/hAmylin binding [1, 7] | Ratio hCT/hAmylin binding [1, 8] | Ratio hCT/hAmylin binding [1, 9] | Ratio hCT/hAmylin binding [1, 10] | pIC50 (rat calcitonin receptor) | pIC50 ([2]; Table 7) | Ratio rCT/rAmylin binding [2, 11] | Ratio rCT/rAmylin binding [2, 12] | Ratio rCT/rAmylin binding [2, 13] | solubility at 18 h [3, 14] [µM] | solubility at 18 h [3, 15] [µM] | solubility at 18 h [3, 16] [µM] | solubility at 18 h [3, 17] [µM] | solubility at 18 h [3, 18] [µM] | solubility at 18 h [3, 19] [µM] | solubility at 18 h [3, 20] [µM] | solubility at 18 h [3, 21] [µM] |
| --- | --- | --- | --- | --- | --- | --- | --- | --- | --- | --- | --- | --- | --- | --- | --- | --- | --- | --- | --- | --- |
| CC[C@H](C)[C@H](NC(=O)[C@H](C)NC(=O)CNC(=O)[C@H](Cc1ccccc1)NC(=O)[C@H](CC(N)=O)NC(=O)[C@@H]1CCCN1C(=O)[C@H](CO)NC(=O)[C@H](CO)NC(=O)[C@H](Cc1c[nH]cn1)NC(=O)[C@H](CCCNC(=N)N)NC(=O)[C@H](CC(C)C)NC(=O)[C@H](Cc1ccccc1)NC(=O)[C@H](Cc1c[nH]cn1)NC(=O)[C@H](C)NC(=O)[C@H](CC(C)C)NC(=O)[C@H](CCCNC(=N)N)NC(=O)[C@H](CCC(N)=O)NC(=O)[C@@H](NC(=O)[C@H](C)NC(=O)[C@@H]1CSSC[C@H](NC(=O)[C@@H](N)CCCCNC(=O)COCCOCCNC(=O)CCCCCCCCCCCCCCCCCCC(=O)O)C(=O)N[C@@H](CC(N)=O)C(=O)N[C@@H]([C@@H](C)O)C(=O)N[C@@H](C)C(=O)N[C@@H]([C@@H](C)O)C(=O)N1)[C@@H](C)O)C(=O)N1CCC[C@H]1C(=O)N[C@@H](CO)C(=O)N[C@@H](CO)C(=O)N[C@H](C(=O)N[C@@H](CC(N)=O)C(=O)N[C@H](C(=O)NCC(=O)N[C@@H](CO)C(=O)N[C@@H](CC(N)=O)C(=O)N[C@H](C(=O)N[C@@H](Cc1ccc(O)cc1)C(N)=O)[C@@H](C)O)C(C)C)[C@@H](C)O [Example 90] | 42.2 | 42.2 | 42.2 | 42.2 | 42.2 | 42.2 | 42.2 | 7.74 | 9.61 | 74.1 | 74.1 | 74.1 | ≥ 200 | ≥ 200 | ≥ 200 | ≥ 200 | ≥ 200 | ≥ 200 | ≥ 200 | ≥ 200 |
| CC[C@H](C)[C@H](NC(=O)[C@H](C)NC(=O)CNC(=O)[C@H](Cc1ccccc1)NC(=O)[C@H](CC(N)=O)NC(=O)[C@@H]1CCCN1C(=O)[C@H](CO)NC(=O)[C@H](CO)NC(=O)[C@H](Cc1c[nH]cn1)NC(=O)[C@H](CCCNC(=N)N)NC(=O)[C@H](CC(C)C)NC(=O)[C@H](Cc1ccccc1)NC(=O)[C@H](CC(N)=O)NC(=O)[C@H](C)NC(=O)[C@H](CC(C)C)NC(=O)[C@H](CCCNC(=N)N)NC(=O)[C@H](CCC(N)=O)NC(=O)[C@@H](NC(=O)[C@H](C)NC(=O)[C@@H]1CSSC[C@H](NC(=O)[C@@H](N)CCCCNC(=O)COCCOCCNC(=O)CCCCCCCCCCCCCCCCCCC(=O)O)C(=O)N[C@@H](CC(N)=O)C(=O)N[C@@H]([C@@H](C)O)C(=O)N[C@@H](C)C(=O)N[C@@H]([C@@H](C)O)C(=O)N1)[C@@H](C)O)C(=O)N1CCC[C@H]1C(=O)N[C@@H](CO)C(=O)N[C@@H](CO)C(=O)N[C@H](C(=O)N[C@@H](CC(N)=O)C(=O)N[C@H](C(=O)NCC(=O)N[C@@H](Cc1c[nH]cn1)C(=O)N[C@@H](CC(N)=O)C(=O)N[C@H](C(=O)N[C@@H](Cc1ccc(O)cc1)C(N)=O)[C@@H](C)O)C(C)C)[C@@H](C)O [Example 91] | 100.8 | 100.8 | 100.8 | 100.8 | 100.8 | 100.8 | 100.8 | 7.53 | 9.41 | 76.3 | 76.3 | 76.3 | ≥ 200 | ≥ 200 | ≥ 200 | ≥ 200 | ≥ 200 | ≥ 200 | ≥ 200 | ≥ 200 |
| CC[C@H](C)[C@H](NC(=O)[C@H](C)NC(=O)CNC(=O)[C@H](Cc1ccccc1)NC(=O)[C@H](CC(N)=O)NC(=O)[C@@H]1CCCN1C(=O)[C@H](CO)NC(=O)[C@H](CO)NC(=O)[C@H](Cc1c[nH]cn1)NC(=O)[C@H](CCCNC(=N)N)NC(=O)[C@H](CC(C)C)NC(=O)[C@H](Cc1ccccc1)NC(=O)[C@H](Cc1c[nH]cn1)NC(=O)[C@H](C)NC(=O)[C@H](CC(C)C)NC(=O)[C@H](CCCNC(=N)N)NC(=O)[C@H](CCC(N)=O)NC(=O)[C@@H](NC(=O)[C@H](C)NC(=O)[C@@H]1CSSC[C@H](NC(=O)[C@@H](N)CCCCNC(=O)CC[C@H](NC(=O)CC[C@H](NC(=O)CCCCCCCCCCCCCCCCCCC(=O)O)C(=O)O)C(=O)O)C(=O)N[C@@H](CC(N)=O)C(=O)N[C@@H]([C@@H](C)O)C(=O)N[C@@H](C)C(=O)N[C@@H]([C@@H](C)O)C(=O)N1)[C@@H](C)O)C(=O)N1CCC[C@H]1C(=O)N[C@@H](CO)C(=O)N[C@@H](CO)C(=O)N[C@H](C(=O)N[C@@H](CC(N)=O)C(=O)N[C@H](C(=O)NCC(=O)N[C@@H](CO)C(=O)N[C@@H](CC(N)=O)C(=O)N[C@H](C(=O)N[C@@H](Cc1ccc(O)cc1)C(N)=O)[C@@H](C)O)C(C)C)[C@@H](C)O [Example 92] | 145.0 | 145.0 | 145.0 | 145.0 | 145.0 | 145.0 | 145.0 | 6.98 | 9.18 | 156.4 | 156.4 | 156.4 | ≥ 200 | ≥ 200 | ≥ 200 | ≥ 200 | ≥ 200 | ≥ 200 | ≥ 200 | ≥ 200 |
